Converted amounts (≈) assume the structure as drawn.
How the values were obtained:
Type in all cases: cell-based
E. coli MG1655 = assay: Survival assay (CFU) of E. coli MG1655 recA+ / recA− after exposure to Nor; settings: wild type background, 3 hours of exposure to Nor 0.1 μg/mL
Procedure: The ability of these fours strains to survive exposure to Nor was then tested. The experiment was performed as follows. Cultures were grown to early log phase in LB at 37° C. with shaking. At the 0 time point Nor was added to the cultures to a final concentration of 0.1 μg/mL. This concentration of Nor is just below the MIC for strain MG1655 under these growth conditions. Samples of the cells were collected and washed in PBS at 0, 30, 90 and 180 min time points. The number of viable cells was determined by plating the cells from each time point on LB agar and counting colonies. The CFU counts were normalized based on the time 0 time point inoculum for each culture (i.e., the CFU count obtained from the 0 time point inoculum was taken to represent 100% survival) and the log % survival was plotted (FIG. 3).
The recA deletion caused a 10,000 fold increase in quinolone sensitivity in a wild type background after 3 hours of exposure to Nor. […] In addition, inhibiting the expression and/or activity of E. coli RecA (or its homolog in other bacteria) is expected to render bacterial strains that have acquired resistance to quinolones (e.g., due to mutation in one or more subunits of the bacterial gyrase or topoisomerase IV and/or due to increased copy number of a gene encoding one of these polypeptides) sensitive once again to these compounds.

S. aureus strain RN4220 = assay: MIC of Nor for S. aureus RN4220 and RN4220 recA−; settings: Staphylococcus aureus
Procedure: The growth and response to quinolone of S. aureus strain RN4220 (wild type) and its recA^− derivative (RN4220 recA^−) were first examined. These strains have been described in the literature (Bayles et al., 1994). The RN4220 recA null mutant (RN4220 recA^−) contains the recA569 allele and is referred to KB103 in Bayles, et al., 1994. […] MICs were determined as described above.
Further details of the assay are as follows: Overnight mutant MG1655 or Staph cultures of clones were grown in 5 mL of LB with appropriate selective agents at 37° C. with shaking. A morning culture was started in a 96 well plate with 16 μL of cells into 1.6 mL of LB and the appropriate plasmid selective agent. […] Serial dilutions were done with 100 μL of drug into 100 μL of H2O. […] 20 μL of each log phase culture was put into a well of one row of a 96 well plate containing […] of LB and the appropriate selective agent. 4.5 μL of each drug concentration was arrayed into the 8 rows of a sterile 300 μL 96-well plate. 250 μL of inoculated culture was added to each column of the sterile 300 μL 96-well plate with drug. The final plate has a different clone in each column and a different Norfloxacin concentration in each row. Plates were grown overnight at 37° C. with shaking. The OD600 of the plate was measured after 16 hours.

[1] = tested on: S. aureus strains wt, recAmut, grlA542, grlA542recAmut; assay: MIC for S. aureus wt, recAmut, grlA542 and grlA542recAmut strains; settings: Staphylococcus aureus
[2] = tested on: S. aureus RN4220 and RN4220 recA−; assay: Survival assay in the RN4220 background after exposure to Nor; settings: RN4220 recA− vs RN4220, 3 hours of exposure to Nor 0.5 μg/mL
Procedure: The survival ability of RN4220 and RN4220 recA^− following exposure to Nor was then tested as described in Example 2 for E. coli strains. The recA null mutant and parental strains (RN4220 recA^− and RN4220, respectively) were grown to early log phase in LB at 37° C. with shaking. At the 0 time point Nor was added to the cultures to a final concentration of 0.5 μg/mL, which is just below the MIC for wild type cells (RN4220). Samples of the cells were collected and washed in PBS at 0, 30, 90 and 180 minutes time points. The number of viable cells was determined by plating the cells on LB from each time point and counting colonies. The CFU counts were normalized based on the time 0 time point inoculum for each culture (i.e., the CFU count obtained from the 0 time point inoculum was taken to represent 100% survival) and the log % survival was plotted (FIG. 5).
It was concluded that recA is essential for survival in the presence of quinolones (FIG. 5). As in E. coli, recA deletion causes 10,000× increase in quinolone sensitivity compared to the parental strain after 3 hours of exposure to Nor.

[3] = tested on: wild-type strain of S. aureus; assay: Hydroxyl radical formation (HPF dye, flow cytometry) in S. aureus; settings: norfloxacin, chloramphenical
Procedure: For work with S. aureus, a Staphylococcus aureus subspecies aureus Rosenback strain was used that was obtained from ATCC (29740).
Growth Conditions. In the experiments, the growth and survival of untreated exponential phase E. coli, or S. aureus, were compared to cultured treated with antibiotics at the above concentrations. E. coli cultures were treated with norfloxacin, kanamycin, ampicillin, rifamycin SV, chloramphenical, tetracycline, erythromycin, or spectinomycin, where appropriate, S. aureus cultures were treated with norfloxacin, vancomycin or chloramphenical, where appropriate.
Hydroxyl radical and DNA damage sensor experiments using the flow cytometer. To monitor the occurrence of DNA damage, the engineered DNA damage sensor was used, which responds to auto-cleavage of LexA by activating expression of gfpmut3b. All the drug treatments and the no-drug controls were collected with both the kanamycin- and ampicillin-resistant version of the plasmid, with the exception of the ampicillin treatment (kanamycin plasmid only) and the kanamycin treatment (ampicillin plasmid only). All data were collected using a Becton Dickinson FACSCalibur flow cytometer (Becton Dickinson, San Jose, Calif.) with a 488-nm argon laser and a 515- to 545-nm emission filter (FL1) at low flow rate. The following PMT voltage settings were used: E00 (FSC), 360 (SSC) and 700 (FL1). To detect hydroxyl radical formation, the fluorescent reporter dye, 3′-(p-hydroxyphenyl) fluorescein (HPF, Invitrogen, Carlsbad, Calif.) was used at a concentration of 5 μM (1:1000) dilution), which is oxidized by hydroxyl radicals with high specificity. The following PMT voltage settings were used: E00 (FSC), 360 (SSC) and 825 (FL 1). Calibrite beads (Becton Dickinson) were used for instrument calibration.

## CCn1cc(C(=O)O)c(=O)c2cc(F)c(N3CCNCC3)cc21 [Nor, norfloxacin]
E. coli MG1655
  increase in quinolone sensitivity caused by recA deletion: 10,000 fold
S. aureus strain RN4220; RN4220, RN4220
  MIC: 1.53 µg/mL
S. aureus strain RN4220; RN4220, RN4220 recA−
  MIC: 0.38 µg/mL
[1]; strain grlA542 (quinolone resistant)
  MIC: 12.5 µg/mL (≈ 39.1 µM)
[1]; strain grlA542recAmut
  MIC: 1.56 µg/mL (≈ 4.89 µM)
[1]; strain recAmut
  MIC: 0.19 µg/mL (≈ 0.595 µM)
[1]; strain wt
  MIC: 0.78 µg/mL (≈ 2.44 µM)
[2]
  increase in quinolone sensitivity caused by recA deletion compared to parental strain: 10,000 ×
[3]
  hydroxyl radical formation: increase in hydroxyl radical production

From patent US20090264342A1, “COMPOSITIONS AND METHODS FOR ANTIBIOTIC POTENTIATION AND DRUG DISCOVERY” (priority 2006, published 2009)
